Drawing on patent US7083655B2, “Hair dye composition” (Kao Corporation, priority 2002, dated 2006), this text covers pKa and pKa value determined for 13 molecules.

Each structure is given as a SMILES string.

The first data set can be described thus: Measurement of pKa value (spectrophotometric titration). It counts as physicochemical. The following applies: DMF/water (1/1) solution, 2×10^−5 mol/l, titrated from pH 2 with NaOH, UV-visible spectrum, read-out: pKa value determined. The protocol: pKa values of the azo dyes described below were determined by the following method; The dye was dissolved in a solution of a DMF/water (1/1) volume ratio to a final concentration of 2×10^−5 mol/l. After the resulting solution was adjusted to pH 2, using 1.0 mol/l hydrochloric acid, the solution was titrated with aqueous 1.0 mol/l sodium hydroxide solution. Recording the change of the visible ultra-violet absorption spectrum, the inflection point was determined by regression analysis.
Regarding `CC(=O)Nc1cc(/N=N/c2nncs2)ccc1O` [Dye D-29], the pKa (usually the pH at which an ionisable group is half protonated) turned out to be 6.04.
For `CCSc1nsc(/N=N/c2cc(Cl)c(O)c(NC(=O)CC)c2)n1` [Dye D-30], the pKa is 3.05.
Consider `Cc1cc(/N=N/c2snc(C)c2C#N)ccc1O` [Dye D-37], for which the pKa worked out at 6.37.
Still for that read-out and setting: the result for `CCSc1nsc(/N=N/c2cc(Cl)c(O)cc2Cl)n1` [Dye D-38] reads 3.5.
Take `COc1cc(/N=N/c2snc(C)c2C#N)ccc1O` [Dye D-39]: the pKa was determined as 5.52.
Regarding `Oc1cc(Cl)c(/N=N/c2nc3ccc(Cl)cc3s2)cc1Cl` [Dye D-40], the pKa is 4.46.
On the same count and under the same terms, the result for `Cc1nsc(/N=N/c2ccc(O)c(Cl)c2)c1C#N` [Dye D-41] reads 5.02; that for `Cc1nsc(/N=N/c2cc(F)c(O)c(F)c2)c1C#N` [Dye D-43], 3.9.
On to `CC(C)CSc1nnc(/N=N/c2cc(Cl)c(O)c(Cl)c2Cl)s1` [Dye D-45], for which the pKa turned out to be 2.28.
Still for that read-out and setting: then `CC(=O)Nc1cc(/N=N/c2nncs2)c(NC(C)=O)cc1O` [Dye D-46], with 5.15.
In the case of `Oc1c(Cl)cc(/N=N/c2nncs2)cc1Cl` [Dye D-56], the pKa was 3.56.

Staying with this data set, now noted: DMF/water (1/1), 2×10^−5 mol/l, titrated from pH 2 with NaOH, UV-visible spectrum.
`Cc1cc(/N=N/c2nc(-c3cccc(NS(C)(=O)=O)c3)ns2)cc(NCOc2ccccc2NS(C)(=O)=O)c1O` [Dye D-34] yielded a pKa value determined of 4.39.
In turn, `Oc1c(NCOc2ccncc2)cc(/N=N/c2nc(-c3ccccc3)no2)c2ccccc12` [Dye D-49] gave a pKa value determined of 5.39.
